What was measured:
[1] = target: Toll-like receptor 1/2 (Homo sapiens, UniProt O60603+Q15399); test: Agonist activity at TLR2/TLR1 in human THP-1 cells; assay type: cell-based
[2] = target: Toll-like receptor 1/2 (Mus musculus); test: Agonist activity at TLR2/TLR1 in mouse Macrophage cell line

Chain of Toll-like receptor 1/2 (O60603 whole entry): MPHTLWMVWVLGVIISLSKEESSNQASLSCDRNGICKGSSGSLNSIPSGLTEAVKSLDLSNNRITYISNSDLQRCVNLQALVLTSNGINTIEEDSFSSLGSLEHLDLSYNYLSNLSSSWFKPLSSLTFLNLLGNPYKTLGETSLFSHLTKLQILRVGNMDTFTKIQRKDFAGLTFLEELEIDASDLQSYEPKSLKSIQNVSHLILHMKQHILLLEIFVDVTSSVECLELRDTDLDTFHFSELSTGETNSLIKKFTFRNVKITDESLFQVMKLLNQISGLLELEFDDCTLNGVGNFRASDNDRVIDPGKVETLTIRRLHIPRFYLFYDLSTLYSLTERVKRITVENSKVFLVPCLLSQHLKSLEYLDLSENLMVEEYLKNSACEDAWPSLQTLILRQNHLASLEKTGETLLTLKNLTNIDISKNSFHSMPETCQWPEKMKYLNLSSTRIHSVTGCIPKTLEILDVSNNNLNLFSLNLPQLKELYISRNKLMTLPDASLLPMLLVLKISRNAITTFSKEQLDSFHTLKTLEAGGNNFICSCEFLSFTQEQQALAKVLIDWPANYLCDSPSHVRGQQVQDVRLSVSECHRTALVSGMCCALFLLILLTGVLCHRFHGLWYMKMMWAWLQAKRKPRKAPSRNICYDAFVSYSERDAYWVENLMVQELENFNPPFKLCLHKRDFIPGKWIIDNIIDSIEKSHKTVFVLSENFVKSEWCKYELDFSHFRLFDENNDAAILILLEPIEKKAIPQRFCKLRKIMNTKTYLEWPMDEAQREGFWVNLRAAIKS
Chain of Toll-like receptor 1/2 (Q15399 whole entry): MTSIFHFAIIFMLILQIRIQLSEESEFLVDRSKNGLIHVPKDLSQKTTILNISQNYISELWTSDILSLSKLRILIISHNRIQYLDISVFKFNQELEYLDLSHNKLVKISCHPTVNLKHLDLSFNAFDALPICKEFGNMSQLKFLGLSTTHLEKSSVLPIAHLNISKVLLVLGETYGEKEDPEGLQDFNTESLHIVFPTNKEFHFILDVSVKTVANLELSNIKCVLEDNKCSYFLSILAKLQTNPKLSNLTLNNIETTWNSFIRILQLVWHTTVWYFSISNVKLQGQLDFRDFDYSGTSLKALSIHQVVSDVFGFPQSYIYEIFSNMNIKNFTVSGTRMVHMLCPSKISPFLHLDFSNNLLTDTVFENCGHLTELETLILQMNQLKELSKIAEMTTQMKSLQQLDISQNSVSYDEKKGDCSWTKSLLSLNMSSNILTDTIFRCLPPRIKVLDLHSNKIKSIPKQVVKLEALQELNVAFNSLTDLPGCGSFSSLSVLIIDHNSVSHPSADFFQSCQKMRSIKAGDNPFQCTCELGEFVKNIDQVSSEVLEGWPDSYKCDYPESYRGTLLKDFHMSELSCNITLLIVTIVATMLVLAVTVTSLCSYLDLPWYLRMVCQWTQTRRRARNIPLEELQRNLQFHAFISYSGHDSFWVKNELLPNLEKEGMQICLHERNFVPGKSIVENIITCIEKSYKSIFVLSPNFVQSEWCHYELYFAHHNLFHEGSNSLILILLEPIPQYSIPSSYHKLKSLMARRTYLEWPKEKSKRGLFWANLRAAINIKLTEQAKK

SMILES | EC50 [1] [µM] | EC50 [2] [µM]
C#CCNc1cc(C(=O)N2C[C@@H](C(=O)N[C@H]3C[C@@H]3c3ccccc3)[C@H](C(=O)N[C@H]3C[C@@H]3c3ccccc3)C2)ccc1C(=O)N1C[C@@H](C(=O)N[C@H]2C[C@@H]2c2ccccc2)[C@H](C(=O)N[C@H]2C[C@@H]2c2ccccc2)C1 | 0.015 | 0.75
COC(=O)[C@@H]1CN(C(=O)c2ccc(C(=O)N3C[C@@H](C(=O)N[C@@H]4C[C@H]4c4ccccc4)[C@H](C(=O)OC)C3)cc2)C[C@H]1C(=O)N[C@@H]1C[C@H]1c1ccccc1 | > 5 | > 5
Cc1ccc([C@H]2C[C@@H]2NC(=O)[C@@H]2CN(C(=O)c3ccc(C(=O)N4C[C@@H](C(=O)N[C@H]5C[C@@H]5c5ccc(C)cc5)[C@H](C(=O)N[C@@H]5C[C@H]5c5ccc(C)cc5)C4)cc3)C[C@H]2C(=O)N[C@H]2C[C@@H]2c2ccc(C)cc2)cc1 | 0.36 | > 5
O=C(NCCc1ccc(F)cc1)[C@@H]1CN(C(=O)/C=C/C(=O)N2C[C@@H](C(=O)NCCc3ccc(F)cc3)[C@H](C(=O)NCCc3ccc(F)cc3)C2)C[C@H]1C(=O)NCCc1ccc(F)cc1 | > 5 | > 5
O=C(NCCc1ccc(F)cc1)[C@@H]1CN(C(=O)c2ccc(C(=O)N3C[C@@H](C(=O)NCCc4ccc(F)cc4)[C@H](C(=O)NCCc4ccc(F)cc4)C3)cc2)C[C@H]1C(=O)NCCc1ccc(F)cc1 | 0.05 | > 5
O=C(NCCc1ccc([N+](=O)[O-])cc1)[C@@H]1CN(C(=O)c2ccc(C(=O)N3C[C@@H](C(=O)NCCc4ccc([N+](=O)[O-])cc4)[C@H](C(=O)NCCc4ccc([N+](=O)[O-])cc4)C3)cc2)C[C@H]1C(=O)NCCc1ccc([N+](=O)[O-])cc1 (racemic) | > 5 | 
CCCCCCNC(=O)[C@@H]1CN(C(=O)c2ccc(C(=O)N3C[C@@H](C(=O)N[C@H]4C[C@@H]4c4ccccc4)[C@H](C(=O)N[C@@H]4C[C@H]4c4ccccc4)C3)cc2)C[C@H]1C(=O)N[C@H]1C[C@@H]1c1ccccc1 | 0.00025 | 0.08
O=C(N[C@H]1C[C@@H]1c1ccccc1)[C@@H]1CN(C(=O)Cc2ccc(CC(=O)N3C[C@@H](C(=O)N[C@H]4C[C@@H]4c4ccccc4)[C@H](C(=O)N[C@H]4C[C@@H]4c4ccccc4)C3)cc2)C[C@H]1C(=O)N[C@H]1C[C@@H]1c1ccccc1 | > 5 | > 5
O=C(NCCc1ccccc1F)[C@@H]1CN(C(=O)c2ccc(C(=O)N3C[C@@H](C(=O)NCCc4ccccc4F)[C@H](C(=O)NCCc4ccccc4F)C3)cc2)C[C@H]1C(=O)NCCc1ccccc1F (racemic) | > 5 | 
CCCCCCCCCCCCCCNC(=O)[C@@H]1CN(C(=O)c2ccc(C(=O)N3C[C@@H](C(=O)NCCCCCCCCCCCCCC)[C@H](C(=O)NCCCCCCCCCCCCCC)C3)cc2)C[C@H]1C(=O)NCCCCCCCCCCCCCC | > 0.005 | > 0.005
O=C(N[C@H]1C[C@@H]1c1ccccc1)[C@@H]1CN(C(=O)c2cc(Br)c(C(=O)N3C[C@@H](C(=O)N[C@H]4C[C@@H]4c4ccccc4)[C@H](C(=O)N[C@H]4C[C@@H]4c4ccccc4)C3)cc2Br)C[C@H]1C(=O)N[C@H]1C[C@@H]1c1ccccc1 | 0.86 | > 5
COc1ccc(CCNC(=O)[C@@H]2CN(C(=O)c3ccc(C(=O)N4C[C@@H](C(=O)NCCc5ccc(OC)cc5)[C@H](C(=O)NCCc5ccc(OC)cc5)C4)cc3)C[C@H]2C(=O)NCCc2ccc(OC)cc2)cc1 (racemic) | > 5 | 
O=C(NCCc1ccc(F)cc1)[C@@H]1CN(C(=O)C#CC(=O)N2C[C@@H](C(=O)NCCc3ccc(F)cc3)[C@H](C(=O)NCCc3ccc(F)cc3)C2)C[C@H]1C(=O)NCCc1ccc(F)cc1 | > 5 | > 5
CCCCCCNC(=O)[C@@H]1CN(C(=O)c2ccc(C(=O)N3C[C@@H](C(=O)N[C@H]4C[C@@H]4c4ccccc4)[C@H](C(=O)N[C@@H]4C[C@H]4c4ccccc4)C3)cc2)C[C@H]1C(=O)NCCCCCC | 0.05 | 0.36
Cc1cc(C(=O)N2C[C@@H](C(=O)N[C@H]3C[C@@H]3c3ccccc3)[C@H](C(=O)N[C@H]3C[C@@H]3c3ccccc3)C2)c(C)cc1C(=O)N1C[C@@H](C(=O)N[C@H]2C[C@@H]2c2ccccc2)[C@H](C(=O)N[C@H]2C[C@@H]2c2ccccc2)C1 | > 5 | > 5
O=C(N[C@H]1C[C@@H]1c1ccccc1)[C@@H]1CN(C(=O)[C@H]2CC[C@H](C(=O)N3C[C@@H](C(=O)N[C@H]4C[C@@H]4c4ccccc4)[C@H](C(=O)N[C@H]4C[C@@H]4c4ccccc4)C3)CC2)C[C@H]1C(=O)N[C@H]1C[C@@H]1c1ccccc1 | > 5 | > 5
COc1ccc([C@H]2C[C@@H]2NC(=O)[C@@H]2CN(C(=O)c3ccc(C(=O)N4C[C@@H](C(=O)N[C@H]5C[C@@H]5c5ccc(OC)cc5)[C@H](C(=O)N[C@@H]5C[C@H]5c5ccc(OC)cc5)C4)cc3)C[C@H]2C(=O)N[C@H]2C[C@@H]2c2ccc(OC)cc2)cc1 | > 5 | > 5
O=C(N[C@H]1C[C@@H]1c1ccccc1)[C@@H]1CN(C(=O)C/C=C/CC(=O)N2C[C@@H](C(=O)N[C@H]3C[C@@H]3c3ccccc3)[C@H](C(=O)N[C@H]3C[C@@H]3c3ccccc3)C2)C[C@H]1C(=O)N[C@H]1C[C@@H]1c1ccccc1 | > 5 | > 5
Nc1cc(C(=O)N2C[C@@H](C(=O)N[C@H]3C[C@@H]3c3ccccc3)[C@H](C(=O)N[C@H]3C[C@@H]3c3ccccc3)C2)ccc1C(=O)N1C[C@@H](C(=O)N[C@H]2C[C@@H]2c2ccccc2)[C@H](C(=O)N[C@H]2C[C@@H]2c2ccccc2)C1 | 0.001 | 0.14

SMILES | EC50 [1] [µM] | EC50 [2] [µM]
CCCCNC(=O)[C@@H]1CN(C(=O)c2ccc(C(=O)N3C[C@@H](C(=O)N[C@H]4C[C@@H]4c4ccccc4)[C@H](C(=O)N[C@@H]4C[C@H]4c4ccccc4)C3)cc2)C[C@H]1C(=O)NCCCC | 0.00028 | 0.06
CCCCNC(=O)[C@@H]1CN(C(=O)c2ccc(C(=O)N3C[C@@H](C(=O)NCCCC)[C@H](C(=O)NCCCC)C3)cc2)C[C@H]1C(=O)NCCCC | > 0.005 | > 0.005
O=C(NCCc1ccc(O)cc1)[C@@H]1CN(C(=O)c2ccc(C(=O)N3C[C@@H](C(=O)NCCc4ccc(O)cc4)[C@H](C(=O)NCCc4ccc(O)cc4)C3)cc2)C[C@H]1C(=O)NCCc1ccc(O)cc1 (racemic) | > 5 | 
O=C(N[C@H]1C[C@@H]1c1ccccc1)[C@@H]1CN(C(=O)c2ccc(C(=O)N3C[C@@H](C(=O)N[C@H]4C[C@@H]4c4ccccc4)[C@H](C(=O)N[C@H]4C[C@@H]4c4ccccc4)C3)c(Br)c2)C[C@H]1C(=O)N[C@H]1C[C@@H]1c1ccccc1 | > 5 | > 5
O=C(NCCc1ccc(F)cc1)[C@@H]1CN(C(=O)c2ccc(-c3ccc(C(=O)N4C[C@@H](C(=O)NCCc5ccc(F)cc5)[C@H](C(=O)NCCc5ccc(F)cc5)C4)cc3)cc2)C[C@H]1C(=O)NCCc1ccc(F)cc1 | > 5 | > 5
CCCCCCNC(=O)[C@@H]1CN(C(=O)c2ccc(C(=O)N3C[C@@H](C(=O)NCCCCCC)[C@H](C(=O)NCCCCCC)C3)cc2)C[C@H]1C(=O)NCCCCCC |  | > 0.005
O=C(NCCc1ccc(F)cc1)[C@@H]1CN(C(=O)c2ccc(C(=O)N3C[C@@H](C(=O)NCCc4ccc(F)cc4)[C@H](C(=O)NCCc4ccc(F)cc4)C3)c(O)c2)C[C@H]1C(=O)NCCc1ccc(F)cc1 | 0.13 | > 5
Cc1ccc(CCNC(=O)[C@@H]2CN(C(=O)c3ccc(C(=O)N4C[C@@H](C(=O)NCCc5ccc(C)cc5)[C@H](C(=O)NCCc5ccc(C)cc5)C4)cc3)C[C@H]2C(=O)NCCc2ccc(C)cc2)cc1 (racemic) | > 5 | 
O=C(NCCc1ccc(Br)cc1)[C@@H]1CN(C(=O)c2ccc(C(=O)N3C[C@@H](C(=O)NCCc4ccc(Br)cc4)[C@H](C(=O)NCCc4ccc(Br)cc4)C3)cc2)C[C@H]1C(=O)NCCc1ccc(Br)cc1 (racemic) | > 5 | 
Nc1ccc(CCNC(=O)[C@@H]2CN(C(=O)c3ccc(C(=O)N4C[C@@H](C(=O)NCCc5ccc(N)cc5)[C@H](C(=O)NCCc5ccc(N)cc5)C4)cc3)C[C@H]2C(=O)NCCc2ccc(N)cc2)cc1 (racemic) | > 5 | 
O=C(NCCc1ccccc1)[C@@H]1CN(C(=O)c2ccc(C(=O)N3C[C@@H](C(=O)NCCc4ccc5ccccc5c4)[C@H](C(=O)NCCc4ccc5ccccc5c4)C3)cc2)C[C@H]1C(=O)NCCc1ccc2ccccc2c1 (racemic) | > 5 | 
CCCCCCCCNC(=O)[C@@H]1CN(C(=O)c2ccc(C(=O)N3C[C@@H](C(=O)NCCCCCCCC)[C@H](C(=O)NCCCCCCCC)C3)cc2)C[C@H]1C(=O)NCCCCCCCC |  | > 0.005
O=C(NCCc1ccc(Cl)cc1)[C@@H]1CN(C(=O)c2ccc(C(=O)N3C[C@@H](C(=O)NCCc4ccc(Cl)cc4)[C@H](C(=O)NCCc4ccc(Cl)cc4)C3)cc2)C[C@H]1C(=O)NCCc1ccc(Cl)cc1 (racemic) | > 5 | 
CCCCCCCCCCNC(=O)[C@@H]1CN(C(=O)c2ccc(C(=O)N3C[C@@H](C(=O)NCCCCCCCCCC)[C@H](C(=O)NCCCCCCCCCC)C3)cc2)C[C@H]1C(=O)NCCCCCCCCCC |  | > 0.005
O=C(NCCc1ccc(C(F)(F)F)cc1)[C@@H]1CN(C(=O)c2ccc(C(=O)N3C[C@@H](C(=O)NCCc4ccc(C(F)(F)F)cc4)[C@H](C(=O)NCCc4ccc(C(F)(F)F)cc4)C3)cc2)C[C@H]1C(=O)NCCc1ccc(C(F)(F)F)cc1 (racemic) | > 5 | 
CCCCCCCCCCCCCCCCNC(=O)[C@@H]1CN(C(=O)c2ccc(C(=O)N3C[C@@H](C(=O)NCCCCCCCCCCCCCCCC)[C@H](C(=O)NCCCCCCCCCCCCCCCC)C3)cc2)C[C@H]1C(=O)NCCCCCCCCCCCCCCCC |  | > 0.005
COC(=O)c1ccc(CCNC(=O)[C@@H]2CN(C(=O)c3ccc(C(=O)N4C[C@@H](C(=O)NCCc5ccc(C(=O)OC)cc5)[C@H](C(=O)NCCc5ccc(C(=O)OC)cc5)C4)cc3)C[C@H]2C(=O)NCCc2ccc(C(=O)OC)cc2)cc1 (racemic) | > 5 | 
N#Cc1ccc(CCNC(=O)[C@@H]2CN(C(=O)c3ccc(C(=O)N4C[C@@H](C(=O)NCCc5ccc(C#N)cc5)[C@H](C(=O)NCCc5ccc(C#N)cc5)C4)cc3)C[C@H]2C(=O)NCCc2ccc(C#N)cc2)cc1 (racemic) | > 5 | 
O=C(NCCc1ccc(-c2ccccc2)cc1)[C@@H]1CN(C(=O)c2ccc(C(=O)N3C[C@@H](C(=O)NCCc4ccc(-c5ccccc5)cc4)[C@H](C(=O)NCCc4ccc(-c5ccccc5)cc4)C3)cc2)C[C@H]1C(=O)NCCc1ccc(-c2ccccc2)cc1 (racemic) | > 5 | 

Source: ChEMBL document CHEMBL5226282, “TLR2 Agonistic Small Molecules: Detailed Structure-Activity Relationship, Applications, and Future Prospects” (J Med Chem, 2021)
